Results on one molecule are retold here after patent US10413535B2, “Pharmaceutical compositions comprising an integrin ALPHA4 antagonist for use in treating ocular inflammatory conditions” (AXEROVISION, INC., priority 2015, dated 2019).

One series deals with T1, integrin α4 (Homo sapiens, UniProt P13612).
T1 sequence (P13612 34-1032): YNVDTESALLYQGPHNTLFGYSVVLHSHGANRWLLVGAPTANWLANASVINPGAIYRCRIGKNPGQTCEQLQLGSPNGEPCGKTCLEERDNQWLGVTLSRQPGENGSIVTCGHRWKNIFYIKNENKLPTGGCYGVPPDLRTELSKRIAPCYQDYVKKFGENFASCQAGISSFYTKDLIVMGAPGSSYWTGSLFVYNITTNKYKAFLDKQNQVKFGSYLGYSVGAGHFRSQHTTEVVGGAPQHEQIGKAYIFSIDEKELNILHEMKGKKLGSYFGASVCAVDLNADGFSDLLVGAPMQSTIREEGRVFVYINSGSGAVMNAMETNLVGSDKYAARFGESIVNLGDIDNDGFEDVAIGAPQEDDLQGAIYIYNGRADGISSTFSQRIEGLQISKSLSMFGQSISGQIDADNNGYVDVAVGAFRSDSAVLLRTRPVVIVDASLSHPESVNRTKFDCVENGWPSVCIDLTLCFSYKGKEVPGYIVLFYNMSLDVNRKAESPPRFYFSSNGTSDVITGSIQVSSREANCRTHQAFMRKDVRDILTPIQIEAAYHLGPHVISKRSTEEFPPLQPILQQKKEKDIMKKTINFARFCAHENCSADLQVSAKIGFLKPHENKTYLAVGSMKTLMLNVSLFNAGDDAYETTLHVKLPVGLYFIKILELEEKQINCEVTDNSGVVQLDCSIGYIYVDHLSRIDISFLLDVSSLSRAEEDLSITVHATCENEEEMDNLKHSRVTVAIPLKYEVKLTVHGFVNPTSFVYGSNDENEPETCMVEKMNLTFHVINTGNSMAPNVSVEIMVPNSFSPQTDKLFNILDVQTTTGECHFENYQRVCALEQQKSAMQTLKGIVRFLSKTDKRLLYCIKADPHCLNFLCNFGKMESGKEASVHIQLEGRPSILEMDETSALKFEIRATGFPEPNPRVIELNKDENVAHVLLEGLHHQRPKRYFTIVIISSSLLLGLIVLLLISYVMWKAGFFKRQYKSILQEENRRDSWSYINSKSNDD
The series is described as follows: IC50/IC90 concentrations and required tissue levels quoted in FIG. 6 legend.

Series [1] deals with cells of draining cervical lymph nodes. Put plainly: Flow cytometry of draining cervical lymph nodes, desiccating stress 1 day. Type of series: in vivo, mouse. The conditions noted are these: 1 day DS; for CD11c+ dendritic cells in draining cervical lymph nodes / CD11c+/MHC II+ dendritic cells in draining cervical lymph nodes: listed as compound of formula I. On the procedure: Female C57BL/6 mice, aged 6 to 8 weeks, were subjected to DS for 5 days (DS5) as described previously (de Paiva et al., 2006b; Niederkorn et al., 2006). Topical bilateral treatment with 1 eye drop per eye (2 μL volume) or subcutaneous injection (4 μL volume), 2 times per day, was initiated on day 1 concurrently with DS and continued through day 4. Treatment with the compound of formula I or dexamethasone phosphate 0.1% was compared to correspondingly treated vehicle controls. Mice were randomized to receive one of the test articles. Control mice were kept in a non-stressed (NS) environment maintained at 50-75% relative humidity without exposure to airflow or scopolamine and were not treated with test or control article. Treatment effects were assessed on corneal staining with Oregon Green Dextran (OGD); expression of inflammatory markers in ocular surface tissues by real time PCR; cell population analysis in draining cervical lymph nodes by FACS analysis; conjunctival T cell infiltration by immunohistochemistry.
Cervical draining lymph nodes (CLN) were surgically excised, placed in a round culture plate with ˜8 mL of complete RPMI media and smashed between two frosted slides.
Single-cell suspensions of CLN from C57BL/6 mice, treated under DS conditions for 1 day, were prepared, centrifuged and sequentially filtered, as previously described (de Paiva et al., 2009a). Subsequently 1.0 mL of ACT solution was added for 30 seconds followed by 2.0 mL of complete RPMI. The cells were once again centrifuged and the supernatant aspirated. Cells were then re-suspended in 2.0 mL of complete RPMI and prepared for counting. Ten μL of Trypan Blue were used for counting and the cells were divided in tubes at 1×10^6 cells/mL. Subsequently, the cells were incubated on ice in 20 μL unconjugated anti-mouse CD16/CD32 (BD Pharmingen, San Diego, Calif.) followed by 80 μL of directly conjugated primary antibody or isotype. Finally the samples were washed with 1 mL PBS/1% FBS, centrifuged and re-suspend in 0.3 mL PBS/1% FBS containing 1:1000 of PI. The samples were stored at 4° C. until the analysis was performed with an A BD LSRII Benchtop cytometer. The data was analysed using BD Diva Software (BD Pharmingen) and FlowJo (TreeStar Inc).
Due to skewed distribution of OGD data, the analysis was done on the log 10 scale to make the data more normally distributed. Log 10 OGD data was averaged across two observers and the left and right eyes. The mixed effects ANOVA model included treatment group as a fixed effect and week as a random effect. 95% and 99% confidence intervals were constructed for the disease (5 day DS vs untreated group kept in separate vivarium) and compound treatment effects (treatment vs vehicle). As these comparisons were all pre-planned (comparing each treatment to its vehicle group), no adjustment was made for multiplicity. Log 10 scale treatment effect estimates and confidence limits were converted back to the original OGD scale, thus representing the estimate for the ratio of group geometric means and their confidence limits. For gene expression analysis, an unpaired T test was performed to compare drug and vehicle treatment. For flow cytometry analysis, a 2-way ANOVA with fixed treatment and random experiment effects was employed to test the treatment differences. The analysis was followed by Dunnett's multiple comparison procedure to compare each of the treatment groups with the vehicle group. T cell density was calculated for each section and averaged across sections for each animal. As the distribution of average cell density data was non-normal, it was analyzed by using non-parametric methods (Kruskal-Wallis procedure, followed by Dunn's multiple comparisons technique).
The draining CLN are an integral part of the immune cycle in DED (Pflugfelder et al., 2008; Schaumburg et al., 2011). […]
On the technique in general: In flow cytometry, cells or beads pass a laser one at a time.

Where [2] appears, read: topical treatment, vs vehicle (GW559090 30 mg/mL, 60 μg per eye; Dex 0.1%).

Several values for one entry are separate records, joined by “and”; a condition that tells them apart may be missing. Equal values may be shown once. Entries after “also recorded” stand apart in the source; their conditions may differ. Read-outs that look alike come from different tables or passages of the source.

With `Cc1ccccc1OCC(=O)N[C@@H](CC(C)C)C(=O)N[C@@H](Cc1ccc(OC(=O)N2CCC(C(N)=O)CC2)cc1)C(=O)O` [GW559090, (2S)-3-[4-({[4-(Aminocarbonyl)-1-piperidinyl]carbonyl}oxy)phenyl]-2-[((2S)-4-methyl-2-{[2-(2-methylphenoxy)acetyl]amino}pentanoyl)amino]propanoic acid], at integrin α4 (FIG. 6 legend, read-out: 1050 concentration (converted)), the IC50 was ~8 nM and ~8.38 nM. The IC90 at integrin α4 (FIG. 6 legend, read-out: IC90 concentration) is ~80 nM and ~0.048 µg/mL; at integrin α4 (if protein binding is 98%, read-out: Approximate tissue level required to achieve the IC90 concentration), ~4 µM and ~2.4 µg/mL. Moreover, on integrin α4 (if protein binding is 98%), the “Approximate tissue level required to achieve the 1050 concentration” value was ~400 nM and ~240 ng/mL. In addition, in series [1], the “CD4+ and CD8+ T cells in draining lymph nodes” value is “nor did treatment with the compound of formula I or dexamethasone decrease the number of T cells”. Moreover, the “CD11c+ dendritic cells in draining cervical lymph nodes” value in series [1] (systemic (SC BID, 120 μg)) was “Neither systemic treatment with the compound of formula I nor topical treatment with dexamethasone phosphate produced the same effect; also recorded: no significant effect”; in series [1] (setting [2]) it was “reduced; also recorded: decreases”. Also, the “CD11c+/MHC II+ dendritic cells in draining cervical lymph nodes” value is given as “no significant effect” in series [1] (systemic (SC BID, 120 μg)) and “reduced; also recorded: decreases” in series [1] (setting [2]).
